Reference: patent US20260191861A1, “INFLAMMASOME AND VEGF INHIBITION FOR RETINAL VASCULAR DISEASES” (University of Virginia Patent Foundation, priority 2022, published 2026)
“Also recorded” adds a separate entry of the source.

Legend:
[1] = tested on: caspase-1; experiment: Rhegmatogenous retinal detachment (RRD) model: retinal caspase-1 cleavage by immunoblot; format: in vivo, mouse
Protocol: (§1) All experiments involving animals were approved by the University of Virginia Institutional Animal Care and Use Committee (IACUC) and adhered to the Association for Research in Vision and Ophthalmology (ARVO) Statement for the Use of Animals in Ophthalmic and Vision Research. Animal subjects were male and female mice aged 6 to 10 weeks. Wild type C57BL/6J mice were obtained from the Jackson Laboratory (Bar Harbor, ME, USA). To anesthetize mice for study procedures, ketamine hydrochloride (100 mg/kg; Ft. Dodge Animal Health, Overland Park, KS, USA) and xylazine (10 mg/kg; Phoenix Scientific, St. Joseph, MO, USA) were delivered by intraperitoneal (IP) injection. Pupils were dilated with topical 1% tropicamide and 2.5% phenylephrine (Alcon Laboratories, Ft. Worth, TX, USA).
(§2) RRD model was established by subretinal injection (SRI) of 3 μl 1% carboxymethyl cellulose (CMC; Refresh Liquigel, Allergan, Irvine, CA, USA).
(§3) NRTIs and K-9 were delivered via intraperitoneal (IP) injection in equimolar amounts. […] Kamuvudine K-9 (3-methyl-3TC, MW=273 g/mol) was administered either at a low dose (K-9L; 90 mg/kg daily) or a high dose (K-9H; 60 mg/kg twice daily, equimolar to NRTI doses). IP injection of phosphate buffered saline (PBS) was used as control.
Retinal tissue was extracted and lysed by sonication in radioimmunoprecipitation assay (RIPA) buffer (MilliporeSigma, Darmstadt, Germany). The Pierce BCA Protein Assay Kit (ThermoFisher Scientific, Waltham, MA, USA) was used to determine protein concentrations of interest. Samples were prepared that contained equal concentrations of total protein (10-100 μg). Protein samples were resolved by SDS-PAGE and transferred onto Immobilon-FL PVDF membranes (Millipore, Billerica, MA, USA). Membranes were blocked in Odyssey Blocking Buffer (PBS) for 1 hour at room temperature, and then incubated overnight with primary antibody at 4° C. Across study experiments, the following antibodies were used: anti-mouse caspase-1 (1:1000; AG-20B-0042; AdipoGen Life Sciences, San Diego, CA, USA), and anti-mouse GAPDH (1:1000; 2118; Cell Signaling, Danvers, MA, USA). […]

[2] = tested on: photoreceptors (TUNEL+ cells in the ONL); experiment: RRD model: TUNEL assay of the retinal outer nuclear layer; format: in vivo, mouse
Protocol: as §1, §2, §3
Retinal cross cryosections at a thickness of 10 μm were stained with TUNEL (TdT-mediated dUTP nick-end labeling) using the In Situ Cell Death Detection Kit (Roche Diagnostics, Indianapolis, IN, USA) according to the manufacturer's′ instructions. The sections were wet-mounted with ProLong anti-fade reagent with DAPI (P36935, ThermoFisher Scientific, Waltham, MA, USA) and visualized using an A1R laser confocal microscope (Nikon, Tokyo, Japan). Fourteen representative sections, including the optic nerve, were used per treatment group. To calculate the number of TUNEL+ cells in the outer nuclear layer (ONL), the retina analysis toolkit of ImageJ (2.1.0; NIH, Bethesda, MD, USA) was used.

[3] = tested on: participants with diabetic macular edema; conditions: week 8, synthetic controls of DRCR.net Protocol T; cited from earlier work
[4] = tested on: participants with diabetic macular edema; conditions: week 8, included DRCR.net Protocol T patients (synthetic controls); cited from earlier work
[5] = tested on: participants with diabetic macular edema; experiment: Retinal central subfield thickness by spectral-domain OCT, including synthetic controls from DRCR.net Protocol T; format: in vivo, human; conditions: for IPTW mixed-effect model: change in central subfield thickness, Treatment × week [8] estimate / Mixed-effect model: change in central subfield thickness, Treatment × week [8] estimate: interaction term; for IPTW mixed-effect model: change in central subfield thickness from baseline, treatment estimate (ref = Placebo) / Mixed-effect model: change in central subfield thickness from baseline, treatment estimate (ref = Placebo): main effect (week 4); for Mixed-effect model: change in central subfield thickness, Treatment × week [8] estimate / Mixed-effect model: change in central subfield thickness from baseline, treatment estimate (ref = Placebo): unweighted model
Protocol: (§4) Propensity score methods were used to select DRCR.net Protocol T study participants similar to lamivudine-treated patients. Inverse probability treatment weights (IPTW) and propensity score matching were used. To estimate the IPTW weights, a multinomial logistic regression was used to estimate propensity scores using important predictors including baseline visual acuity and baseline central subfield thickness along with age, gender, and duration of diabetes. Weights were calculated as the reciprocal of the estimated propensity score of the actual treatment received. Weights were then truncated at the 99th percentile. For the propensity score matched analysis, lamivudine-treated patients were matched to each DRCR.net Protocol T treatment arm (aflibercept, bevacizumab, ranibizumab) and placebo group, separately. Due to the limited sample size for matching within each group, propensity score models included the most important predictors of acuity change including baseline visual acuity, age and duration of diabetes.
(§5) For the IPTW analysis, a mixed-effects weighted model was fit with subject-specific random effects. […] The model's estimates, confidence intervals (CI), and P values were reported for each predictor. Additionally, model-based contrasts were conducted to compare the change in VALS from baseline between lamivudine and the Protocol T treatments.
(§6) Secondary outcomes included the change in central subfield thickness, the percentage of eyes with an improvement in VALS of 15 or more, the correlation between improvements in visual acuity and central subfield thickness, and systemic and ocular adverse events. Change in central subfield thickness was estimated using mixed-effects models, similar to the VALS analysis. To analyze a VALS improvement of at least 15 letters, logistic regression using generalized estimating equations (GEEs) was specified with an exchangeable correlation matrix. Model-based contrasts were estimated to make pairwise treatment comparisons.
In all consultations, patients underwent tomography with the Spectralis device (Heidelberg) under mydriasis. The acquisition protocol was the 6×6 mm region centered on the fovea. Data analysis from SD-OCT was restricted to the central field (1 mm in diameter) Intravitreous Injection of Anti-VEGF

[6] = tested on: participants with diabetic macular edema; experiment: Visual acuity (VALS) compared with synthetic controls from the DRCR.net Protocol T study (IPTW, propensity score matching, GEE); format: in vivo, human
Text: The second analysis included participants from the lamivudine versus placebo trial, along with a synthetic comparator created using data from the DRCR.net Protocol T study. The source of the data is DRCR.net (2018) A Comparative Effectiveness Study of Intravitreal Aflibercept, Bevacizumab and Ranibizumab for Diabetic Macular Edema, retrieved from https://public.jaeb.org/drcrnet/stdy/download/206. The analyses, content, and conclusions presented herein are solely the responsibility of the authors and have not been reviewed or approved by DRCR.net.
Inclusion criteria for participants from the DRCR.net Protocol T study were based on their similarity to the lamivudine versus placebo trial design. This involved selecting only patients with type 2 diabetes, study eyes with a baseline VALS<69, and complete follow-up visual acuity measurements at weeks 4 and 8.
as §4, §5
For each propensity score matched group (e.g., lamivudine-bevacizumab, lamivudine-aflibercept), a mixed effect model was fit estimating the change in visual acuity from baseline. Subject specific random effect was included along with fixed effect predictors: treatment group, baseline VALS, central subfield thickness, eye (left vs right), age, sex, race and type 2 diabetes duration.
as §6

[7] = day 3 RRD, equimolar IP doses twice daily (K-9H 60 mg/kg, 3TC 50 mg/kg)
[8] = three days after inducing RRD, IP treatment
[9] = IPTW model with synthetic controls
[10] = Original (unweighted) model with synthetic controls

Substance	degree of suppression of caspase-1 activation [1, 7] [%+1%]	retinal cleaved caspase-1 compared with PBS-treated mice [1, 8]	degree of photoreceptor protection [2, 7] [%+7%]	number of TUNEL+ cells in the ONL of the retina compared with PBS-treatment [2, 8]	percentage of eyes with VALS improvement of 15 or more that had minimal change in central subfield thickness (≤50 μm) [3] [%]	percentage of eyes with improvement in VALS of 15 or more [4] [%]	IPTW mixed-effect model: change in central subfield thickness, Treatment × week [8] estimate [5] [μm]	IPTW mixed-effect model: change in central subfield thickness from baseline, treatment estimate (ref = Placebo) [5] [μm]	Mixed-effect model: change in central subfield thickness, Treatment × week [8] estimate [5] [μm]	Mixed-effect model: change in central subfield thickness from baseline, treatment estimate (ref = Placebo) [5] [μm]	GEE model: odds ratio of change in VALS from baseline ≥15 (ref = Placebo) ([6]; IPTW model)	Mixed effect model: change from baseline visual acuity, treatment estimate (ref: Placebo) [6, 9]	Mixed effect model: change from baseline visual acuity, treatment estimate (ref: Placebo) ([6]; IPTW model with synthetic controls, listed as aflibercept)	Mixed effect model: change from baseline visual acuity, treatment estimate (ref: Placebo) [6, 10]	GEE model: odds ratio of change in VALS from baseline ≥15 (ref = Placebo) ([6]; Original model)	Mixed effect model: change from baseline visual acuity, treatment estimate (ref: Placebo) ([6]; IPTW model with synthetic controls, listed as bevacizumab)	Mixed effect model: change from baseline visual acuity, treatment estimate (ref: Placebo) ([6]; IPTW model with synthetic controls, listed as ranibizumab)
3-methyl-3TC [K-9]	84	dose-dependent and complete reduction; also recorded: inhibits RRD-induced caspase-1 cleavage	56	dose-dependent reduction; also recorded: protects photoreceptors	–	–	–	–	–	–	–	–	–	–	–	–	–
Aflibercept: inhibitor of vascular endothelial growth factor (VEGF), intravitreous	–	–	–	–	42	38	68.54	−104.33	74.83	−114.55	19.39	8.42	8.4	8.48	11.15	–	–
Bevacizumab: inhibitor of vascular endothelial growth factor (VEGF), intravitreous	–	–	–	–	29	24	74.82	−66.35	84.87	−75.55	10.33	5.32	–	5.36	6.15	5.3	–
Ranibizumab: inhibitor of vascular endothelial growth factor (VEGF), intravitreous	–	–	–	–	41	34	75	−113.67	85.69	−122.12	19.96	7.12	–	7.04	11.14	–	7.1
